Consider 17 compounds from article PMC8300937, “New azolyl-derivatives as multitargeting agents against breast cancer and fungal infections: synthesis, biological evaluation and docking study” (Journal of Enzyme Inhibition and Medicinal Chemistry, 2021).

Converted amounts (≈) assume the structure as drawn.

One data set deals with C. albicans ATCC 90028. In words: Antifungal broth microdilution (EUCAST), standard strain. The class given is cell-based. The conditions noted are these: Candida albicans, ATCC90028; C. albicans ATCC 90028; 24 h, ≥50% growth inhibition; read-out: MIC. The protocol:
The antifungal activity of the most representative compounds was evaluated versus one ATCC 90028 strain and 15 clinical isolates belonging to the most clinically relevant Candida spp. (C. albicans, C. tropicalis, and C. glabrata). All strains were stored at −80 °C in Sabouraud Broth (Oxoid LTD, Basingstoke, Hampshire, England) with 20% of glycerine until their use. The strains were grown on Sabouraud CAF agar (Thermo Fisher Scientific Waltham, MA, USA), and incubated for 24–48 h at 37 °C. […] The in vitro antifungal activity was determined by broth microdilution method with RPMI 1640 (Sigma-Aldrich. ST Louis, MO, USA) as recommended by EUCAST, and the E. Def 7.3, method document (http://www.eucast.org). […] Each plate included the following controls: (i) inoculum suspension (growth control), (ii) drug-free medium, (iii) medium with drug, and (iv) distilled water (used for the inoculum preparation). Fluconazole was used as a reference drug according to the EUCAST guidelines. The plates were incubated for 24 h at 37 °C, and then read with a plate reader at 530 nm. […] Three independent experiments were performed in triplicate.

The target in the next data set is T1, aromatase (CYP19A) (Homo sapiens, UniProt P11511).
T1 construct: purchased BioVision
T1 sequence (P11511 1-503): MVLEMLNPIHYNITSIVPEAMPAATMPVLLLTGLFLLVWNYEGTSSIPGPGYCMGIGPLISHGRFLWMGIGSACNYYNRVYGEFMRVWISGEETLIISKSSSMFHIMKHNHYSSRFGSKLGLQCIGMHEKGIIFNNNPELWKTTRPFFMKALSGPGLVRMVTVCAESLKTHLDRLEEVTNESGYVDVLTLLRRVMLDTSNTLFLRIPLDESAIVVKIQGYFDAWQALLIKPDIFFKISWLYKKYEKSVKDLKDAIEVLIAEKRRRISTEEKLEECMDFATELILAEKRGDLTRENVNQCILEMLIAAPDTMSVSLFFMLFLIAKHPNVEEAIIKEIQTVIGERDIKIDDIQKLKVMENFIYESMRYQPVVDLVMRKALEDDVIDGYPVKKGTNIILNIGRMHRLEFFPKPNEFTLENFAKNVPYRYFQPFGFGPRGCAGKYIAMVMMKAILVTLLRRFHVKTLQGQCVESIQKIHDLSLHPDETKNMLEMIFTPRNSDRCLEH
In words: Aromatase inhibition, fluorimetric assay kit (Aromatase-CYP19A Inhibitor Screening kit, BioVision). In kind it is biochemical. The conditions noted are these: read-out: Aromatase % inhibition.

The target of a further data set is T2, Recombinant human iNOS (Homo sapiens, UniProt P35228).
T2 construct: purchased Enzo Life Sciences, Inc
In words: iNOS inhibition, L-citrulline assay with fluorimetric (HPLC) detection. The class given is biochemical. The conditions noted are these: for inhibition at 1 µM: read-out: iNOS % inhibition; for iNOS % inhibition: compounds at 1 µM, normalised to 1400 W (positive control, 100% inhibition at 1 μM), triplicate, mean ± SD. On the procedure: The injection volume was 5 μL.
Recombinant human iNOS was purchased from Enzo Life Sciences, Inc. (New York, USA).

The subject of data set [1] is MCF-7 breast cancer cell line. Nature of the data set: Cell metabolic activity (MTT assay). The conditions noted are these: Homo sapiens, MCF7; MCF-7, 24 h exposure; read-out: IC50 cell metabolic activity (MTT). The class given is cell-based. On the procedure: Human breast cancer MCF-7 (HTB-22™) cells were purchased from ATCC® and maintained in Dulbecco’s Modified Eagle Medium (DMEM) high glucose supplemented with 10% of foetal bovine serum (FBS) and 1% of penicillin/streptomycin (all from Gibco-Thermofisher Scientific, MD, USA) at 37 °C and 5% CO2.
Cell metabolic activity of MCF-7 human breast cancer cells was assessed by MTT (3–(4,5-dimethylthiazol-2-yl)-2,5-diphenyltetrazolium bromide) test (Sigma Aldrich, Milan, Italy). Cells were seeded (0.1 × 10^4/well) in a 96-well tissue culture-treated plate (Falcon®, Corning Incorporated, NY, USA) and let them adhere for 24 h. Next, the cell monolayer was incubated in the presence of loading concentrations of compounds 2, 5 and 6 (0–400 µM) diluted in DMSO (final concentration 0.2%) for 24, 48 and 72 h. After the exposure time, cells were incubated with 100 μL/well of MTT (5 mg/mL) 1:10 with fresh growth medium (final concentration 0.5 mg/mL) for 4 h at 37 °C and 5% CO2. Finally, the MTT solution was removed and replaced with 100 µL/well of DMSO. Cells were incubated for an additional 20 min at 37 °C and 5% CO2 and afterward gently swirled for 10 min at room temperature. The optical density was measured at 540 nm by means of a spectrophotometer (Multiskan GO, Thermo Scientific, Monza, Italy). Results were expressed as the percentage of cells in the presence of vehicle (DMSO) set as 100% and each experiment was performed in triplicate (n = 3). Concentration-response curves and IC50 were fitted and calculated with the GraphPad Prism 5.0 (GraphPad Software, San Diego, CA, USA)[27].
Background: Tetrazolium dyes change colour on reduction, which living cells bring about.

Method for aromatase (CYP19A): The aromatase inhibitory activity of the novel compounds was determined using a commercial fluorimetric kit (Aromatase CYP19A Inhibitor Screening kit, BioVision, Milpitas, CA, USA). The assay utilises a fluorogenic aromatase substrate, that is converted into a highly fluorescent metabolite detected in the visible range (Ex/Em = 488/527 nm), ensuring a high signal-to-background ratio with little interference by autofluorescence.

As a reminder, the MIC is the least concentration at which growth counts as inhibited. Take `OC(Cn1cncn1)(Cn1cncn1)c1ccc(F)cc1F` [Fluconazole, reference compound]: the MIC in the data set with C. albicans ATCC 90028 was determined as 0.25 µg/mL (≈ 0.816 µM).
Usually melting point stands for the temperature of the solid-liquid transition. The term inhibition denotes how much of the control response was suppressed. With `O=C(OC(Cc1ccccc1)Cn1ccnc1)c1ccc2ccccc2c1` (stereo not drawn) [Compound 3, 1-benzyl-2-(1H-imidazol-1-yl)ethyl 2-naphthoate], the melting point is 71 to 72 °C. The inhibition at 1 µM at aromatase (CYP19A) amounted to 13 ± 0.5%. The inhibition at 1 µM on Recombinant human iNOS came to 0%. For the same compound, the minimum inhibitory concentration (MIC) with C. albicans ATCC 90028 was found to be 64 µg/mL (≈ 180 µM).
With `CC(=O)Nc1ccc(S(=O)(=O)N2CCCC(Cn3cncn3)C2)cc1` (stereo not drawn) [Compound 20, N-(4-{[3-(1H-1,2,4-triazol-1-ylmethyl)piperidin-1-yl]sulphonyl}phenyl)acetamide], the results for the inhibition at 1 µM on aromatase (CYP19A) and on Recombinant human iNOS were 61 ± 2.1% and 0%, respectively.
For the compound `OC(Cc1ccccc1)Cn1ccnc1` (stereo not drawn) [Compound 1, 1-(1H-imidazol-1-yl)-3-phenylpropan-2-ol], the iNOS % inhibition result at Recombinant human iNOS is listed as “complete enzyme inhibition”.
As to `N#Cc1ccc(S(=O)(=O)N2CCCC(Cn3cncn3)C2)cc1` (stereo not drawn) [Compound 19, 4-{[3-(1H-1,2,4-triazol-1-ylmethyl)piperidin-1-yl]sulphonyl}benzonitrile], the melting point was in the range of 95 to 96 °C. Also, at aromatase (CYP19A), the inhibition at 1 µM came to 48 ± 1.7%. On Recombinant human iNOS, the inhibition at 1 µM is 16 ± 0.7%.
`CC(=N)NCc1cccc(CN)c1` [1400 W, reference compound]: the iNOS % inhibition at Recombinant human iNOS amounted to 100%.
Turning to `Cc1ccc(S(=O)(=O)N2CCCC(Cn3cncn3)C2)cc1` (stereo not drawn) [Compound 14, 1-[(4-methylphenyl)sulphonyl]-3-(1H-1,2,4-triazol-1-ylmethyl)piperidine], the figures for the inhibition at 1 µM at aromatase (CYP19A) and on Recombinant human iNOS were 32 ± 1.2% and 22 ± 0.5%, respectively.
By IC50 is commonly meant the concentration needed to halve the response being measured. Take `O=C(NCc1ccccc1)OC(Cc1ccccc1)Cn1ccnc1` (stereo not drawn) [Compound 6, 1-benzyl-2-(1H-imidazol-1-yl)ethyl benzylcarbamate]: the inhibition at 1 µM on aromatase (CYP19A) worked out at 72 ± 1.4%; on Recombinant human iNOS, 52 ± 0.7%. Besides, the IC50 in data set [1] was over 400 µM. Besides, the MIC with C. albicans ATCC 90028 was over 64 µg/mL.
In turn, `O=S(=O)(c1ccccc1)N1CCCC(Cn2cncn2)C1` (stereo not drawn) [Compound 13, 1-(phenylsulfonyl)-3-(1H-1,2,4-triazol-1-ylmethyl)piperidine] came in with a melting point of 72 to 73 °C. In addition, the inhibition at 1 µM on aromatase (CYP19A) worked out at 29 ± 1.5%. Besides, the inhibition at 1 µM at Recombinant human iNOS amounted to 27 ± 0.4%.
With `COc1ccc(S(=O)(=O)N2CCCC(Cn3cncn3)C2)c(OC)c1` (stereo not drawn) [Compound 15, 1-[(2,4-dimethoxyphenyl)sulphonyl]-3-(1H-1,2,4-triazol-1-ylmethyl)piperidine], the inhibition at 1 µM on aromatase (CYP19A) came to 62 ± 2.8%; on Recombinant human iNOS it was 18 ± 0.1%.
In the case of `N#Cc1ccc(C(c2ccc(C#N)cc2)n2cncn2)cc1` [letrozole, reference compound], at aromatase (CYP19A), the inhibition at 1 µM is 100%.
As to `Cc1ccc(S(=O)(=O)N2CCCC(Cn3cncn3)C2)cc1[N+](=O)[O-]` (stereo not drawn) [Compound 17, 1-[(4-methyl-3-nitrophenyl)sulphonyl]-3-(1H-1,2,4-triazol-1-ylmethyl)piperidine], the melting point fell in the range of 105 to 106 °C. Besides, on aromatase (CYP19A), the inhibition at 1 µM was found to be 25 ± 1.3%. In addition, the inhibition at 1 µM on Recombinant human iNOS was determined as 39 ± 0.2%. In the data set on C. albicans ATCC 90028, the MIC was over 64 µg/mL.
The corresponding values for `O=C(OC(Cc1ccccc1)Cn1ccnc1)c1cccc(C(=O)c2ccccc2)c1` (stereo not drawn) [Compound 4, 1-benzyl-2-(1H-imidazol-1-yl)ethyl 3-benzoylbenzoate] are 86 to 87 °C, 36 ± 1.2%, 47 ± 1.3% and over 64 µg/mL.
`COc1ccc(NC(=S)OC(Cc2ccccc2)Cn2ccnc2)c(OC)c1` (stereo not drawn) [Compound 7, O-[1-benzyl-2-(1H-imidazol-1-yl)ethyl] (2,4-dimethoxyphenyl)thiocarbamate]: the inhibition at 1 µM at aromatase (CYP19A) is 15 ± 0.3%; at Recombinant human iNOS it was 7 ± 0.08%. Besides, in the data set with C. albicans ATCC 90028, the MIC is over 64 µg/mL.
Compound `N#Cc1ccc(S(=O)(=O)N2CCCC(Cn3cncn3)C2)c(Cl)c1` (stereo not drawn) [Compound 18, 3-chloro-4-{[3-(1H-1,2,4-triazol-1-ylmethyl)piperidin-1-yl]sulphonyl}benzonitrile] returned a melting point of 81 to 82 °C. Besides, at aromatase (CYP19A), the inhibition at 1 µM is 55 ± 1.1%. At Recombinant human iNOS, the inhibition at 1 µM stood at 14 ± 0.2%. Also, the MIC in the data set with C. albicans ATCC 90028 is over 64 µg/mL.
For `COc1cc(C)ccc1NC(=S)OC(Cc1ccccc1)Cn1ccnc1` (stereo not drawn) [Compound 8, O-[1-benzyl-2-(1H-imidazol-1-yl)ethyl] (2-methoxy-4-methylphenyl)thiocarbamate], the melting point is 120 to 121 °C. Also, at aromatase (CYP19A), the inhibition at 1 µM was determined as 54 ± 0.9%. Further, the inhibition at 1 µM on Recombinant human iNOS came to 12 ± 0.1%.
For `O=[N+]([O-])c1cccc(S(=O)(=O)N2CCCC(Cn3cncn3)C2)c1` (stereo not drawn) [Compound 16, 1-[(3-nitrophenyl)sulphonyl]-3-(1H-1,2,4-triazol-1-ylmethyl)piperidine], the inhibition at 1 µM came out at 63 ± 3.1% at aromatase (CYP19A) and 47 ± 0.3% on Recombinant human iNOS. Moreover, the minimum inhibitory concentration (MIC) with C. albicans ATCC 90028 is over 64 µg/mL.
